Data from PubChem BioAssay (NCI).
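Grown in 96-well plates, cells were treated for 48 hours with each compound at five concentrations. Insufficient inhibition: endpoint recorded as highest concentration tested. TGI denotes the concentration required for complete inhibition of growth.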

What was measured:
Assay in all cases: inhibition of tumour cell growth, NCI panel, 48 h
[1] = test system: 786-0 renal
[2] = test system: A498 renal
[3] = test system: A549 NSCLC
[4] = test system: ACHN renal
[5] = test system: CAKI-1 renal
[6] = test system: CCRF-CEM leukemia
[7] = test system: DU-145 prostate
[8] = test system: HCC-2998 colon
[9] = test system: HCT-116 colon
[10] = test system: HCT-15 colon
[11] = test system: HOP-92 NSCLC
[12] = test system: HS 578T breast
[13] = test system: HT29 colon
[14] = test system: K-562 leukemia
[15] = test system: KM12 colon
[16] = test system: M14 melanoma
[17] = test system: MALME-3M melanoma
[18] = test system: MDA-MB-231 breast
[19] = test system: MDA-MB-435
[20] = test system: MDA-N
[21] = test system: MOLT-4 leukemia
[22] = test system: NCI-H23 lung
[23] = test system: NCI-H460 lung
[24] = test system: NCI/ADR-RES ovarian
[25] = test system: OVCAR-3 ovarian
[26] = test system: OVCAR-4 ovarian
[27] = test system: OVCAR-5 ovarian
[28] = test system: OVCAR-8 ovarian
[29] = test system: RXF 393 renal
[30] = test system: SF-268 CNS
[31] = test system: SF-539 CNS
[32] = test system: SK-MEL-2 melanoma
[33] = test system: SK-MEL-5 melanoma
[34] = test system: SK-OV-3 ovarian
[35] = test system: SN12C renal
[36] = test system: SNB-19 CNS
[37] = test system: T-47D breast
[38] = test system: TK-10 renal
[39] = test system: U251 CNS
[40] = test system: UACC-257 melanoma
[41] = test system: UACC-62 melanoma
[42] = test system: UO-31 renal
[43] = test system: COLO 205 colon
[44] = test system: EKVX NSCLC
[45] = test system: HOP-62 NSCLC
[46] = test system: IGROV1 ovarian
[47] = test system: LOX IMVI melanoma
[48] = test system: MCF7 breast
[49] = test system: NCI-H226 lung
[50] = test system: NCI-H522 lung
[51] = test system: PC-3 prostate
[52] = test system: RPMI-8226 leukemia
[53] = test system: SF-295 CNS
[54] = test system: SK-MEL-28 melanoma
[55] = test system: SNB-75 CNS
[56] = test system: SW-620 colon
[57] = test system: HL-60(TB) leukemia

CN(CCCN=C=S)CCCN1c2ccccc2CCc2ccccc21
TGI [1]: 3.08 µM
TGI [2]: 3.07 µM
TGI [3]: 3.16 µM
TGI [4]: 3.12 µM
TGI [5]: 3.21 µM
TGI [6]: > 100 µM
TGI [7]: 3.22 µM
TGI [8]: 2.69 µM
TGI [9]: 3.09 µM
TGI [10]: 2.9 µM
TGI [11]: 4.29 µM
TGI [12]: 4.03 µM
TGI [13]: 2.94 µM
TGI [14]: > 100 µM
TGI [15]: 3.5 µM
TGI [16]: 3.16 µM
TGI [17]: 3.48 µM
TGI [18]: 3.29 µM
TGI [19]: 3.27 µM
TGI [20]: 3.16 µM
TGI [21]: > 100 µM
TGI [22]: 3.11 µM
TGI [23]: 3.45 µM
TGI [24]: 2.67 µM
TGI [25]: 3.14 µM
TGI [26]: 3.56 µM
TGI [27]: 3.35 µM
TGI [28]: 3.43 µM
TGI [29]: 3.39 µM
TGI [30]: 3.24 µM
TGI [31]: 3.46 µM
TGI [32]: 3.38 µM
TGI [33]: 3.43 µM
TGI [34]: 3.16 µM
TGI [35]: 3.17 µM
TGI [36]: 3.14 µM
TGI [37]: 3.92 µM
TGI [38]: 3.26 µM
TGI [39]: 3.26 µM
TGI [40]: 3.85 µM
TGI [41]: 3.2 µM
TGI [42]: 3 µM

Cc1cn(CCCC2=NCCCN2)c(=O)[nH]c1=O
TGI [1]: > 100 µM
TGI [2]: > 100 µM
TGI [3]: > 100 µM
TGI [4]: > 100 µM
TGI [5]: > 100 µM
TGI [6]: > 100 µM
TGI [43]: > 100 µM
TGI [7]: > 100 µM
TGI [44]: > 100 µM
TGI [8]: > 100 µM
TGI [9]: > 100 µM
TGI [10]: > 100 µM
TGI [45]: > 100 µM
TGI [11]: > 100 µM
TGI [12]: > 100 µM
TGI [13]: > 100 µM
TGI [46]: > 100 µM
TGI [14]: > 100 µM
TGI [15]: > 100 µM
TGI [47]: > 100 µM
TGI [16]: > 100 µM
TGI [17]: > 100 µM
TGI [48]: > 100 µM
TGI [18]: > 100 µM
TGI [19]: > 100 µM
TGI [20]: > 100 µM
TGI [21]: > 100 µM
TGI [49]: > 100 µM
TGI [22]: > 100 µM
TGI [23]: > 100 µM
TGI [50]: > 100 µM
TGI [24]: > 100 µM
TGI [25]: > 100 µM
TGI [26]: > 100 µM
TGI [27]: > 100 µM
TGI [28]: > 100 µM
TGI [51]: > 100 µM
TGI [52]: > 100 µM
TGI [29]: > 100 µM
TGI [30]: > 100 µM
TGI [53]: > 100 µM
TGI [31]: > 100 µM
TGI [32]: > 100 µM
TGI [54]: > 100 µM
TGI [33]: > 100 µM
TGI [34]: > 100 µM
TGI [35]: > 100 µM
TGI [36]: > 100 µM
TGI [55]: > 100 µM
TGI [56]: > 100 µM
TGI [37]: > 100 µM
TGI [38]: > 100 µM
TGI [39]: > 100 µM
TGI [40]: > 100 µM
TGI [41]: > 100 µM
TGI [42]: > 100 µM

CN(CCCNCc1ccccn1)Cc1ccccc1O
TGI [1]: > 100 µM
TGI [2]: > 100 µM
TGI [3]: > 100 µM
TGI [4]: 42.3 µM
TGI [5]: > 100 µM
TGI [6]: > 100 µM
TGI [43]: 94.4 µM
TGI [7]: > 100 µM
TGI [44]: > 100 µM
TGI [8]: > 100 µM
TGI [9]: > 100 µM
TGI [10]: > 100 µM
TGI [57]: > 100 µM
TGI [45]: > 100 µM
TGI [11]: > 100 µM
TGI [12]: > 100 µM
TGI [13]: 94.4 µM
TGI [46]: > 100 µM
TGI [14]: > 100 µM
TGI [15]: > 100 µM
TGI [47]: > 100 µM
TGI [17]: > 100 µM
TGI [48]: > 100 µM
TGI [18]: > 100 µM
TGI [19]: > 100 µM
TGI [20]: > 100 µM
TGI [21]: > 100 µM
TGI [49]: 97.8 µM
TGI [22]: 55.6 µM
TGI [23]: > 100 µM
TGI [50]: > 100 µM
TGI [24]: 95.2 µM
TGI [25]: > 100 µM
TGI [26]: > 100 µM
TGI [27]: > 100 µM
TGI [28]: > 100 µM
TGI [51]: > 100 µM
TGI [52]: > 100 µM
TGI [29]: > 100 µM
TGI [30]: > 100 µM
TGI [53]: 54.7 µM
TGI [32]: > 100 µM
TGI [54]: > 100 µM
TGI [33]: 51.6 µM
TGI [34]: > 100 µM
TGI [35]: > 100 µM
TGI [36]: 68.5 µM
TGI [55]: > 100 µM
TGI [56]: > 100 µM
TGI [37]: > 100 µM
TGI [38]: 64.8 µM
TGI [39]: > 100 µM
TGI [40]: 92.2 µM
TGI [41]: 43.2 µM
TGI [42]: 19.8 µM
